Experiment [1] addresses T1, human α1d adrenergic receptor (Homo sapiens, UniProt P25100).
T1 construct: The entire coding region. of α1d (1719 bp); expressed in transfected cells
T1 sequence (P25100 1-572): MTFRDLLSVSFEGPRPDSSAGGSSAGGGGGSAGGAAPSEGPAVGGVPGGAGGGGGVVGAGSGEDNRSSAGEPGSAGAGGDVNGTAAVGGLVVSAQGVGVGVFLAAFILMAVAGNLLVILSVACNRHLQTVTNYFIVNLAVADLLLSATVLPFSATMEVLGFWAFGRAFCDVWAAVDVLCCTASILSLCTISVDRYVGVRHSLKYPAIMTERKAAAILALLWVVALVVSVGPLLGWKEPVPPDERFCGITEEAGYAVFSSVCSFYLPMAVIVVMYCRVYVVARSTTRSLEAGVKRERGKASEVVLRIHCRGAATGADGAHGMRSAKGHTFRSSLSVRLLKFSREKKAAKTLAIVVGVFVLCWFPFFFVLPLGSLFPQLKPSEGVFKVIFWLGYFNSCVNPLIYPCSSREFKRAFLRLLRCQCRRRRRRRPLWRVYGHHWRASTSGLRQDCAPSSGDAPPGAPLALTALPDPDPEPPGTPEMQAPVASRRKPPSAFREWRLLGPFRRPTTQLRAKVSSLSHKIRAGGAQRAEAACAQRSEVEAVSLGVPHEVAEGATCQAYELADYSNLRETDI
The experiment is described as follows: Radioligand binding ([3H]prazosin) at cloned human α1d adrenergic receptor. To be noted: LM(tk-) cell membranes, read-out: Binding affinities (pKi) α1d (converted). How it is done:
(§1) First, conditions were determined which allowed measurement of the specific binding of a compound known to bind to the receptor. Then, the binding of the known compound to the receptor in membrane preparations was evaluated in the presence of several different concentrations of the test compound.
(§2) These cell lines were prepared by transfecting the cloned cDNA or cloned genomic DNA or constructs containing both genomic DNA and cDNA encoding the human receptors as described below.
α1d Human Adrenergic Receptor: The entire coding region. of α1d (1719 bp), including 150 base pairs of 5′ untranslated sequence (5′ UT) and 300 bp of 3′ untranslated sequence (3′ UT), was cloned into the BamHI and ClaI sites of the polylinker-modified eukaryotic expression vector pCEXV-3, called EXJ.HR. The construct involved the ligation of partial overlapping human lymphocyte genomic and hippocampal cDNA clones: 5′ sequence were contained on a 1.2 kb SmaI-XhoI genomic fragment (the vector-derived BamHI site was used for subcloning instead of the internal insert-derived SmaI site) and 3′ sequences were contained on a 1.3 kb XhoI-ClaI cDNA fragment (the ClaI site was from the vector polylinker). Stable cell lines were obtained by cotransfection with the plasmid α1A/EXJ (expression vector containing the α1a receptor gene (old nomenclature)) and the plasmid pGCcos3neo (plasmid containing the aminoglycoside transferase gene) into LM(tk-) cells using the calcium phosphate technique. The cells were grown, in a controlled environment (37° C., 5% CO2), as monolayers in Dulbecco's modified Eagle's Medium (GIBCO, Grand Island, N.Y.) containing 25 mM glucose and supplemented with 10% bovine calf serum, 100 units/ml penicillin g, and 100 μg/ml streptomycin sulfate. Stable clones were then selected for resistance to the antibiotic G-418 (1 mg/ml), and membranes were harvested and assayed for their ability to bind [^3H]prazosin as described below (see Radioligand Binding assays).
The cell line expressing the human α1d receptor used herein was designated L-α1A (old nomenclature) and was deposited with the American Type Culture Collection, 12301 Parklawn Drive, Rockville, Md. 20852, U.S.A. under the provisions of the Budapest Treaty for the International Recognition of the Deposit of Microorganisms for the Purposes of Patent Procedure. The cell line expressing the human α1d receptor, was accorded ATCC Accession No. CRL 11138, and was deposited on Sep. 25, 1992.
Radioligand Binding Assays for α1 Human Adrenergic Receptors: Transfected cells from culture flasks were scraped into 5 ml of 5 mM Tris-HCl, 5 mM EDTA, pH 7.5, and lysed by sonication. The cell lysates were centrifuged at 1000 rpm for 5 min at 4° C., and the supernatant was centrifuged at 30,000×g for 20 min at 4° C. The pellet was suspended in 50 mM Tris-HCl, 1 mM MgCl2, and 0.1% ascorbic acid at pH 7.5. Binding of the α1, antagonist [^3H]prazosin (0.5 nM, specific activity 76.2 Ci/mmol) to membrane preparations of LM(tk-) cells was done in a final volume of 0.25 ml and incubated at 37° C. for 1 hour. Nonspecific binding was determined in the presence of 10 μM phentolamine. The reaction was stopped by filtration through GF/B filters using a cell harvester.

For the next experiment, the target named is T2, human 5-HT1a receptor (Homo sapiens, UniProt P08908).
T2 construct: receptor open reading frames and variable non-coding 5′- and 3′-regions, was cloned into the eukaryotic expression vector pCEXV-3; expressed in transfected cells; host or cells: COS-7 cells, transient (DEAE-dextran); a deposited line 5-HT1A-3 (ATCC CRL 11889) is also named
T2 sequence (P08908 1-422): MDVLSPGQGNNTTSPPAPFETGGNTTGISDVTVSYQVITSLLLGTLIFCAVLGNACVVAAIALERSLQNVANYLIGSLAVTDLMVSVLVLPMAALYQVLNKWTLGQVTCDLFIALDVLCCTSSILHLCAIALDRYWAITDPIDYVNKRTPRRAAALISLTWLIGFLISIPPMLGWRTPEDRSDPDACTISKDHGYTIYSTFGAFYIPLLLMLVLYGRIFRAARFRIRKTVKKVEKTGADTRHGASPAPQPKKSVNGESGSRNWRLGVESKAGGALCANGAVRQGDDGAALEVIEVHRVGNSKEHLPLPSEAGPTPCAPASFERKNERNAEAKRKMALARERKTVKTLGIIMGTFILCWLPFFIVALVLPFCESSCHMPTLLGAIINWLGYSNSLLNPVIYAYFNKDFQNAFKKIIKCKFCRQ
The experiment can be described thus: Competition binding ([3H]-8-OH-DPAT) at cloned human 5-HT1a receptor. To be noted: COS-7 cell membranes, read-out: Binding affinities (pKi) 5-HT1a (converted). The protocol:
as §1, §2
The cDNA corresponding to the ^5-HT1a receptor open reading frames and variable non-coding 5′- and 3′-regions, was cloned into the eukaryotic expression vector pCEXV-3. These constructs were transfected transiently into COS-7 cells by the DEAE-dextran method. Cells were harvested after 72 hours and lysed by sonication in 5 mM Tris-HCl, 5 mM EDTA, pH 7.5. The cell lysates were centrifuged at 1000 rpm for 5 minutes at 4° C., and the supernatant was centrifuged at 30,000×g for 20 minutes at 4° C. The pellet was suspended in 50 mM Tris-HCl buffer (pH 7.7 at room temperature) containing 10 mM MgSO4, 0.5 mM EDTA, and 0.1% ascorbate. The affinity of compounds at 5-HT1a receptors were determined in equilibrium competition binding assays using [^3H]-8-OH-DPAT. Nonspecific binding was defined by the addition of 10 μM mianserin. The bound radioligand was separated by filtration through GF/B filters using a cell harvester.

Each structure is given as a SMILES string.

Here are results for eight molecules from patent publication US6706716B2, “Compounds specific for the human α1d adrenergic receptor and uses thereof” (Synaptic Pharmaceutical Corporation, priority 1998, dated 2004).

Consider `Cc1ccc(Cl)cc1N1CCN(CCN2C(=O)CC3(CCCC3)CC2=O)CC1` [Compound 13, 8-{2-[4-(5-Chloro-2-methylphenyl)piperazino]ethyl}-8-azaspiro [4.5]decane-7,9-dione], for which the Ki is 39.8 nM in experiment [1] and 251 nM at human 5-HT1a receptor.
The corresponding values for `O=C1CC2(CCCC2)CC(=O)N1CCN1CCN(c2cc(F)ccc2F)CC1` [Compound 6, 8-{2-[4-(2,5-Difluorophenyl)piperazin-1-yl]ethyl}-8-azaspiro[4.5]decane-7,9-dione] are 1 nM and 25.1 nM.
The matching figures for `C[C@H](CN1CCN(c2cc(F)ccc2F)CC1)N1C(=O)CC2(CCCC2)CC1=O` [Compound 8, 8-{(1R)-2-[4-(2,5-Difluorophenyl)piperazin-1-yl]-1-methylethyl}-8-azaspiro[4.5]decane-7,9-dione]: 0.794 nM and 50.1 nM.
The matching figures for `C[C@@H](CN1CCN(c2cc(F)ccc2F)CC1)N1C(=O)CC2(CCCC2)CC1=O` [Compound 10, 8-{(1S)-2-[4-(2,5-Difluorophenyl)piperazin-1-yl]-1-methylethyl}-8-azaspiro[4.5]decane-7,9-dione]: 50.1 nM and 2510 nM.
Consider `COc1ccc(F)cc1C1CCN(CCN2C(=O)CC3(CCCC3)CC2=O)CC1` [Compound 12, 8-{2-[4-(5-Fluoro-2-methoxyphenyl)piperidin-1-yl]ethyl}-8-azaspiro[4.5]decane-7,9-dione], for which the Ki was 1 nM in experiment [1] and 7.94 nM at human 5-HT1a receptor.
In the case of `O=C1CC2(CCCC2)CC(=O)N1CCN1CCN(c2ccc(F)c(F)c2)CC1` [Compound 15, 8-{2-[4-(3,4-Difluorophenyl)piperazin-1-yl]ethyl}-8-azaspiro[4.5]decane-7,9-dione], the Ki in experiment [1] is 7.94 nM; at human 5-HT1a receptor it was 50.1 nM.
The corresponding values for `O=C1CC2(CCCC2)CC(=O)N1CCN1CCN(c2cc(F)c(F)cc2F)CC1` [Compound 7, 8-{2-[4-(2,4,5-Trifluorophenyl)piperazin-1-yl]ethyl}-8-azaspiro[4.5]decane-7,9-dione] are 2 nM and 398 nM.
With `O=C1CC2(CCCC2)CC(=O)N1CCN1CCN(c2c(F)cccc2F)CC1` [Compound 14, 8-{2-[4-(2,6-Difluorophenyl)piperazino]ethyl}-8-azaspiro[4.5]decane-7,9-dione], the Ki in experiment [1] is 3.98 nM; at human 5-HT1a receptor it was 7.94 nM.
